Results on 21 compounds are retold here after patent publication US20230141198A1, “PYRAZOL[…]” (THE KITASATO INSTITUTE, priority 2019, published 2023).

Common to all, as to assay type: cell-based
One experiment concerns the target T1, human opioid κ receptor (Homo sapiens, UniProt P41145).
T1 construct: host or cells: CHO cells
In words: Opioid receptor function test (agonist activity, Lance Ultra cAMP kit), κ receptor. The settings on record: for Emax: maximum reaction relative to control drug U-69593 taken as 100%. An excerpt: (§1) Opioid Receptor Function Test
(§2) Functional activity of the compound provided by the present invention on μ, δ, and κ opioid receptors was examined.
(§3) Method: Using a Lance Ultra cAMP kit (Perkin Elmer), the functional activity was examined by a predetermined method. In evaluation of agonist activity, CHO cells expressing each of human opioid receptors (δ, μ, and κ: accession numbers and catalog numbers are described below) were reacted with a test compound in an assay buffer (1× HBSS, […], pH 7.4, […] isobutylmethylxanthine (IBMX), 7.5% BSA) in the presence of 10 μM forskolin for 30 minutes. Subsequently, a cAMP detection reagent in the kit was added. One hour later, time-resolved fluorescence measurement was performed using an EnVision plate reader (Perkin Elmer). The test compound and each control drug (δ: SNC 80, μ: DAMGO, κ: U-69593) were evaluated in a concentration range of 10^−12 to 10^−5 M. A dose reaction curve of the test compound was determined from a fluorescence value at 665 nm, and an EC50 value and an Emax value were calculated. The Emax value was determined as a ratio of a maximum reaction of the test compound when a maximum reaction of each control drug was taken as 100%.

For the next experiment, the target named is T2, human opioid μ receptor (Homo sapiens, UniProt P35372).
T2 construct: host or cells: CHO cells
Kind of experiment: Opioid receptor function test (agonist activity, Lance Ultra cAMP kit), μ receptor. The settings on record: for Emax: maximum reaction relative to control drug DAMGO taken as 100%.
From the text: as §1, §2, §3

In the next experiment the target is T3, human opioid δ receptor (Homo sapiens, UniProt P41143).
T3 construct: host or cells: CHO cells
In words: Opioid receptor function test (agonist activity, Lance Ultra cAMP kit), δ receptor. The settings on record: for Emax: maximum reaction relative to control drug SNC 80 taken as 100%.
From the text: as §1, §2, §3

T2 sequence (P35372 whole entry): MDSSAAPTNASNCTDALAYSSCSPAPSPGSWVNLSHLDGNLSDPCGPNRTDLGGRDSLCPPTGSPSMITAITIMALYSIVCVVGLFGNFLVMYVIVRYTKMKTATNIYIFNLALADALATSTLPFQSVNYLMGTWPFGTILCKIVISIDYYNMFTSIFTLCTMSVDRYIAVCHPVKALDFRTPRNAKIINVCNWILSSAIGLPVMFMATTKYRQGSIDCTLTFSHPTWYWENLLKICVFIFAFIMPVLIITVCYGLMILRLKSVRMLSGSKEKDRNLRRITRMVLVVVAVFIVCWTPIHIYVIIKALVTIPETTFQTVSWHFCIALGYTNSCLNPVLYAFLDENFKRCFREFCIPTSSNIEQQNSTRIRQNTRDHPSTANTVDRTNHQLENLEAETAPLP
T1 sequence (P41145 whole entry): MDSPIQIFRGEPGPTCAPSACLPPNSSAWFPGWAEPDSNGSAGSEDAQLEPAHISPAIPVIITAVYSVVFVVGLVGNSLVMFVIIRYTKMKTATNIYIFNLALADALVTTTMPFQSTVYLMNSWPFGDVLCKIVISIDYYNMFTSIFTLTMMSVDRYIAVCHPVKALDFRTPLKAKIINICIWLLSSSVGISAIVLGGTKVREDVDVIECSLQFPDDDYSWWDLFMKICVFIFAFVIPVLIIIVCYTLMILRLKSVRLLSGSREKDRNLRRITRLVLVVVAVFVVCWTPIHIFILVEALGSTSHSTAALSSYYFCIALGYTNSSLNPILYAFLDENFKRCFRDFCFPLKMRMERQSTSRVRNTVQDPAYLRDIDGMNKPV
T3 sequence (P41143 whole entry): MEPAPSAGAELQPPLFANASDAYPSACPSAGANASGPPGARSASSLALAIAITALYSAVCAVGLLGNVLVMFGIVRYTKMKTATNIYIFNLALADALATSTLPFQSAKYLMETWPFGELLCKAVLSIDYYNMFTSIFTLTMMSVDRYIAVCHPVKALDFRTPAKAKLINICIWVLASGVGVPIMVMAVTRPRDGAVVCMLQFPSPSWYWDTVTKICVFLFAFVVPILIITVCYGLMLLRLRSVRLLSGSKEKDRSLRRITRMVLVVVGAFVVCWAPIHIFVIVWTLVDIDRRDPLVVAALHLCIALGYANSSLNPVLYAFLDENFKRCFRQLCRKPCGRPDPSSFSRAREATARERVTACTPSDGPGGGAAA

What is called EC50 is the concentration at which the effect is half-maximal. A lower EC50 goes with higher potency in that assay. Usually Emax stands for the size of the effect at its maximum, as opposed to the concentration needed. For `Cc1c2c(nn1C1CCC1)C[C@]13CCN(CC4CC4)[C@H](Cc4ccc(O)cc41)[C@]3(O)C2` [Compound 85, (6R,6aS,11aR)-9-cyclobutyl-14-(cyclopropylmethyl) methyl-5,6,9,11-tetrahydro-6,11a-(epiminoethano)naphtho[2,1-f]indazole-2,6a(7H)-diol], the values for the EC50 on human opioid κ receptor, on human opioid μ receptor and on human opioid δ receptor were 17 nM, 16 nM and 0.092 nM, respectively. Also, the Emax amounted to 25% on human opioid κ receptor, 26% at human opioid μ receptor and 104% at human opioid δ receptor.
On to `Cc1nn(-c2ccncc2)c2c1C[C@@]1(O)[C@H]3Cc4ccc(O)cc4[C@@]1(CCN3CC1CC1)C2` [Compound 28, (6R,6aS,11aR)-14-(cyclopropylmethyl)-8-methyl-10-(pyridin-4-yl)-5,6,10,11-tetrahydro-6,11a-(epiminoethano)naphtho[2,1-f]indazole-2,6a(7H)-diol], for which, at human opioid κ receptor, the EC50 came out at 58 nM and the Emax was 15%. At human opioid δ receptor, the EC50 was 0.33 nM and the Emax came out at 101%.
On to `Cc1nn(-c2cccnc2)c2c1C[C@@]1(O)[C@H]3Cc4ccc(O)cc4[C@@]1(CCN3CC1CC1)C2` [Compound 49, (6R,6aS,11aR)-14-(cyclopropylmethyl)-8-methyl-10-(pyridin-3-yl)-5,6,10,11-tetrahydro-6,11a-(epiminoethano)naphtho[2,1-f]indazole-2,6a(7H)-diol], for which, at human opioid δ receptor, the EC50 is 0.5 nM and the Emax is 73%.
As to `Cc1[nH]nc2c1C[C@@]1(O)[C@H]3Cc4ccc(O)cc4[C@@]1(CCN3CC1CC1)C2` [34, 35], on human opioid δ receptor, the EC50 is 1.3 nM and the Emax was 42%.
On human opioid δ receptor, `Cc1nn(C2CCSCC2)c2c1C[C@@]1(O)[C@H]3Cc4ccc(O)cc4[C@@]1(CCN3CC1CC1)C2` [Compound 89, (6R,6aS,11aR)-14-(cyclopropylmethyl)-8-methyl-10-(tetrahydro-2H-thiopyran-4-yl)-5,6,10,11-tetrahydro-6,11a-(epiminoethano)naphtho[2,1-f]indazole-2,6a(7H)-diol] had an EC50 of 0.069 nM and a maximal response (Emax) of 112%.
The matching figures for `Cc1nn(C2CCC2)c2c1C[C@@]1(O)[C@H]3Cc4ccc(O)cc4[C@@]1(CCN3CC1CC1)C2` [Compound 84, (6R,6aS,11aR)-10-cyclobutyl-14-(cyclopropylmethyl)-8-methyl-5,6,10,11-tetrahydro-6,11a-(epiminoethano)naphtho[2,1-f]indazole-2,6a(7H)-diol]: 0.34 nM and 95%.
On human opioid κ receptor, `Cc1c2c(nn1C1CCSCC1)C[C@]13CCN(CC4CC4)[C@H](Cc4ccc(O)cc41)[C@]3(O)C2` [Compound 90, (6R,6aS,11aR)-14-(cyclopropylmethyl)-8-methyl-9-(tetrahydro-2H-thiopyran-4-yl)-5,6,9,11-tetrahydro-6,11a-(epiminoethano)naphtho[2,1-f]indazole-2,6a(7H)-diol] had a 50% effective concentration (EC50) of 8.1 nM and an Emax of 15%. On human opioid δ receptor, this compound had an EC50 of 0.092 nM and an Emax of 116%.
Turning to `Cc1nn(-c2ccccn2)c2c1C[C@@]1(O)[C@H]3Cc4ccc(O)cc4[C@@]1(CCN3CC1CC1)C2` [Compound 27, (6R,6aS,11aR)-14-(cyclopropylmethyl)-8-methyl-10-(pyridin-2-yl)-5,6,10,11-tetrahydro-6,11a-(epiminoethano)naphtho[2,1-f]indazole-2,6a(7H)-diol], on human opioid δ receptor, the EC50 worked out at 0.83 nM and the Emax worked out at 51%.
On to `Cc1nn(C2CCN(C)CC2)c2c1C[C@@]1(O)[C@H]3Cc4ccc(O)cc4[C@@]1(CCN3CC1CC1)C2` [Compound 91, (6R,6aS,11aR)-14-(cyclopropylmethyl)-8-methyl-10-(1-methylpiperidin-4-yl)-5,6,10,11-tetrahydro-6,11a-(epiminoethano)naphtho[2,1-f]indazole-2,6a(7H)-diol], for which the EC50 at human opioid κ receptor amounted to 15 nM; at human opioid μ receptor, 32 nM; on human opioid δ receptor it was 0.23 nM. In addition, the Emax at human opioid κ receptor was found to be 25%; on human opioid μ receptor, 12%; at human opioid δ receptor, 112%.
On human opioid δ receptor, `Cc1nn(-c2ccccc2)c2c1C[C@@]1(O)[C@H]3Cc4ccc(O)cc4[C@@]1(CCN3CC1CC1)C2` [Compound 21, (6R,6aS,11aR)-14-(cyclopropylmethyl) methyl-10-phenyl-5,6,10,11-tetrahydro-6,11a-(epiminoethano)naphtho[2,1-f]indazole-2,6a(7H)-diol] came in with an EC50 of 0.76 nM and an Emax of 81%.
The matching figures for `Cc1nn(C2CC2)c2c1C[C@@]1(O)[C@H]3Cc4ccc(O)cc4[C@@]1(CCN3CC1CC1)C2` [Compound 82, (6R,6aS,11aR)-10-cyclopropyl-14-(cyclopropylmethyl)-8-methyl-5,6,10,11-tetrahydro-6,11a-(epiminoethano)naphtho[2,1-f]indazole-2,6a(7H)-diol]: 0.93 nM and 39%.
At human opioid δ receptor, `O=c1c2c([nH]n1-c1ccccc1)C[C@]13CCN(CC4CC4)[C@H](Cc4ccc(O)cc41)[C@]3(O)C2` [Compound 68, (6R,6aS,11aR)-14-(cyclopropylmethyl)-2,6a-dihydroxy-9-phenyl-6,6a,7,9,10,11-hexahydro-6,11a-(epiminoethano)naphtho[2,1-f]indazol-8(5H)-one] showed an EC50 of 1.4 nM and an Emax of 100%.
On human opioid κ receptor, `Cc1c2c(nn1C1CCCCC1)C[C@]13CCN(CC4CC4)[C@H](Cc4ccc(O)cc41)[C@]3(O)C2` [Compound 33, (6R,6aS,11aR)-9-cyclohexyl-14-(cyclopropylmethyl)-8-methyl-5,6,9,11-tetrahydro-6,11a-(epiminoethano)naphtho[2,1-f]indazole-2,6a(7H)-diol] came in with an EC50 of 44 nM and an Emax of 13%. Moreover, on human opioid δ receptor, it took 0.14 nM to reach a half-maximal effect (EC50) and the Emax was determined as 108%.
On human opioid δ receptor, `Cc1nn(-c2nccs2)c2c1C[C@@]1(O)[C@H]3Cc4ccc(O)cc4[C@@]1(CCN3CC1CC1)C2` [Compound 51, (6R,6aS,11aR)-14-(cyclopropylmethyl)-8-methyl-10-(thiazol-2-yl)-5,6,10,11-tetrahydro-6,11a-(epiminoethano)naphtho[2,1-f]indazole-2,6a(7H)-diol] had an EC50 of 0.94 nM and an Emax of 54%.
On human opioid δ receptor, `Cc1nn(CC2CC2)c2c1C[C@@]1(O)[C@H]3Cc4ccc(O)cc4[C@@]1(CCN3CC1CC1)C2` [Compound 45, (6R,6aS,11aR)-10,14-bis(cyclopropylmethyl)-8-methyl-5,6,10,11-tetrahydro-6,11a-(epiminoethano)naphtho[2,1-f]indazole-2,6a(7H)-diol] returned an EC50 of 0.75 nM and an Emax of 72%.
For `Cc1nn(C(=O)c2ccccc2)c2c1C[C@@]1(O)[C@H]3Cc4ccc(O)cc4[C@@]1(CCN3CC1CC1)C2` [Compound 36, ((6R,6aS,11aR)-14-(cyclopropylmethyl)-2,6a-dihydroxy-8-methyl-6,6a,7,11-tetrahydro-6,11a-(epiminoethano)naphtho[2,1-f]indazol-10(5H)-yl)(phenyl)methanone], in that order: 3.4 nM and 65%.
`Cc1nn(C2CCCCC2)c2c1C[C@@]1(O)[C@H]3Cc4ccc(O)cc4[C@@]1(CCN3CC1CC1)C2` [Compound 32, (6R,6aS,11aR)-10-cyclohexyl-14-(cyclopropylmethyl)-8-methyl-5,6,10,11-tetrahydro-6,11a-(epiminoethano)naphtho[2,1-f]indazole-2,6a(7H)-diol]: at human opioid δ receptor, the EC50 amounted to 0.089 nM and the Emax came to 111%.
At human opioid δ receptor, `Cc1c2c(nn1CC1CCCCC1)C[C@]13CCN(CC4CC4)[C@H](Cc4ccc(O)cc41)[C@]3(O)C2` [Compound 42, (6R,6aS,11aR)-9-(cyclohexylmethyl)-14-(cyclopropylmethyl)-8-methyl-5,6,9,11-tetrahydro-6,11a-(epiminoethano)naphtho[2,1-f]indazole-2,6a(7H)-diol] gave an EC50 of 1 nM and an Emax of 90%.
The matching figures for `Cc1nn(C2CCOCC2)c2c1C[C@@]1(O)[C@H]3Cc4ccc(O)cc4[C@@]1(CCN3CC1CC1)C2` [Compound 88, (6R,6aS,11aR)-14-(cyclopropylmethyl)-8-methyl-10-(tetrahydro-2H-pyran-4-yl)-5,6,10,11-tetrahydro-6,11a-(epiminoethano)naphtho[2,1-f]indazole-2,6a(7H)-diol]: 0.086 nM and 113%.
On human opioid δ receptor, `Cc1nn(C2CCCC2)c2c1C[C@@]1(O)[C@H]3Cc4ccc(O)cc4[C@@]1(CCN3CC1CC1)C2` [Compound 86, (6R,6aS,11aR)-10-cyclopentyl-14-(cyclopropylmethyl)-8-methyl-5,6,10,11-tetrahydro-6,11a-(epiminoethano)naphtho[2,1-f]indazole-2,6a(7H)-diol] came in with an EC50 of 0.12 nM and a maximum response (Emax) of 101%.
At human opioid δ receptor, `Cc1c2c(nn1CC1CC1)C[C@]13CCN(CC4CC4)[C@H](Cc4ccc(O)cc41)[C@]3(O)C2` [Compound 46, (6R,6aS,11aR)-9,14-bis(cyclopropylmethyl)-8-methyl-5,6,9,11-tetrahydro-6,11a-(epiminoethano)naphtho[2,1-f]indazole-2,6a(7H)-diol] returned an EC50 of 0.17 nM and an Emax of 105%.
